Results published in patent US12491176B2, “Methods, compositions, kits and uses thereof targeting and/or treating VRK2 to enhance effectiveness of immune checkpoint inhibitor(s)” (THE TRUSTEES OF COLUMBIA UNIVERSITY IN THE CITY OF NEW YORK, priority 2021, dated 2025).
“Also recorded” adds a separate entry of the source.

Columns and labels:
MC38 tumor = experiment: MC38 syngeneic mouse tumor model, tumor growth; assay type: in vivo
Excerpt: (§1) One million MC38 or 4T1 cells were used for inoculation, implanted subcutaneously in the right hind flank of mice. Tumor growth was monitored using electronic calipers and calculated according to the formula: V=length×width^2×0.52. For T cell phenotypic analysis by flow cytometry, spleens and inguinal lymph nodes were harvested 17 days post-treatment initiation. Splenic and tdLN cells were stained with anti-mouse antibodies for flow cytometry analysis. To deplete T cells, mice received intraperitoneal injection of 200 μg anti-CD4 (BioXcell BE0003) and 200 μg anti-CD8 (BioXcell BE0061) antibodies in PBS, a second dose of the antibodies was administered two days later. […] Cell viability was measured with PrestoBlue (Invitrogen). […] Prexasertib was given S.C. at 10 mg/kg. All drugs were given for 12 days.
(§2) The MC38 syngeneic mouse tumor model was used to determine whether VRK2 inhibition alone or in combination with PD-1 blockade would improve anti-tumor immune response (see, e.g., FIG. 3A).
Utilizing an immunocompetent syngeneic model, C57BL/6 mice were injected with colon adenocarcinoma cell line MC38 and treated with kinase inhibitors as monotherapy or in combination with a mouse immune checkpoint blocking antibody (clone RMP1.14) for PD-1.

4T1 tumor = experiment: 4T1 mouse breast cancer tumor model in BALB/c mice, tumor growth; assay type: in vivo
Excerpt: as §1

[1] = system: PAK2 S197 phosphorylation; experiment: Western blot of PAK2 S197 phosphorylation in Jurkat T cells following PD-1 ligation; assay type: cell-based, human
Experimental: To determine PAK phosphorylation, 5×10^6 Jurkat T cells were washed with cold PBS and resuspended in complete RPMI. The cells were stimulated for 5 minutes with Dynabeads at 37° C. as indicated above (beads/cells ratio of 3:1). The samples were treated with Calyculin A (CST 99025) at 100 nM for 25 minutes at 37° C., washed once with cold PBS and centrifugation at 500×g and lysed with RIPA buffer supplemented with PhosStop (Roche) for 1 hr at 4° C. Following 10 second sonication and centrifugation at 12,000×g for 10 minutes at 4° C., the samples were blotted using Phospho-PAK1 (Ser199/204)/PAK2 (Ser192/197) antibody (Cell Signaling). Blots were imaged and analyzed using Licor Odyssey.
Therefore, it was sought to validate the in silico predictions in Jurkat T cells with and without pharmacological VRK2 inhibition as well as in shRNA VRK2 knockdown Jurkat T cell line.

[2] = system: T cells in tdLN and spleen; experiment: T cell phenotypic analysis by flow cytometry in tdLN and spleen of MC38 tumor mice; assay type: in vivo, mouse
Excerpt: as §1, §2

mouse splenocytes = conditions: overnight treatment
T cells = experiment: Toxicity to T cells; assay type: cell-based
PD-1 signaling = experiment: In vitro ability of PD-1 to inhibit cytokine secretion with IC-261; assay type: cell-based
Experimental: IL-2, IL-8, and IFN-γ concentrations in the supernatant were measured by enzyme linked immunosorbent assay (ELISA) from BioLegend.
IC-261 (AdooQ®: A15764), a small molecule specific inhibitor of VRK2 was used to evaluate the effect of VRK2 inhibition in tumor growth using mice MC38 syngenetic tumor model. This drug was also used in in vitro experiments where the ability of PD-1 to inhibit cytokine secretion was evaluated.

SMILES	MC38 tumor volume compared to Prexasertib (LY2606368) and PF-477,736 (MC38 tumor; AZD-7762 25 mg/kg, PF 10 mg/kg, Prexasertib 10 mg/kg, 12 days)	tumor inhibition (MC38 tumor; AZD-7762 in combination treatment with anti-PD-1, MC38 in C57BL/6 mice)	tumor volume compared to vehicle or anti-PD-1 antibody treatment (MC38 tumor; AZD-7762 treatment alone, MC38)	anti-tumor activity after CD4+ and CD8+ T cell depletion (MC38 tumor; MC38 model, T cells depleted with anti-CD4 and anti-CD8 antibodies)	anti-tumor responses compared to PD-1 blockade alone or AZD-7762 treatment alone (MC38 tumor; combination of AZD-7762 with PD-1 blockade, MC38)	inhibited tumor growth (MC38 tumor; monotherapy, 25 mg/kg intraperitoneal (I.P.), MC38 in C57BL/6 mice)	reduction in tumor growth (4T1 tumor; AZD-7762 alone, 4T1 in BALB/c mice (resistant to PD-1 monotherapy))	reduction in tumor growth, combination versus AZD-7762 alone (4T1 tumor; combination of AZD-7762 and anti-PD-1, 4T1 in BALB/c mice)	PAK2 S197 phosphorylation following PD-1 ligation [1]	proportion of CD8 T cells in tumor draining lymph nodes (tdLN) ([2]; combination of AZD-7762 with PD-1 blockade)	proportion of CD44+PD-1+ T cells in spleen and tdLN ([2]; combination therapy)	proportion of activated CD44+CD69+ CD4+ and CD8+ T cells in the tdLN ([2]; combination therapy)	LAG-3+ CD8+ T cells ([2]; combination therapy, tdLN)	cytotoxicity compared to two other CHK specific inhibitors (mouse splenocytes)	inhibition of tumor growth (MC38 tumor; monotherapy, 5 mg/kg, MC38 in C57BL/6 mice)	toxicity to T cells (T cells)	effect on PD-1 signaling and function (ability of PD-1 to inhibit cytokine secretion) (PD-1 signaling)
NC(=O)Nc1cc(-c2cccc(F)c2)sc1C(=O)N[C@H]1CCCNC1 [AZD-7762]	marked decrease in MC38 tumor volume	around 90%	significantly decreased tumor volume	fully reversed the anti-tumor activity; also recorded: impaired the efficacy	augmented anti-tumor responses	~80%	~30%	similar	fully inhibited	increased proportion of CD8 T cells	elevated proportion	significantly increased proportion	significantly increased	less cytotoxicity			
COc1cc(OC)c(C=C2C(O)=Nc3ccccc32)c(OC)c1 [IC-261]															inhibition of tumor growth, like anti-PD-1 dosed as monotherapy	not toxic to T cells	interfere with PD-1 signaling and function
